Data from US4226610A, “Herbicidal compounds, preparation thereof and herbicides containing the same” (Meiji Selka Kaisha, Ltd., priority 1978, dated 1980).

How the values were obtained:
[1] = system: water hyacinth; assay: Experiment 5 foliar application to water hyacinths; assay type: in vivo, Eichhornia crassipes Solms; conditions: 3 months
How it was run: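 Two plants floated in fertilized water per vessel, sprayed foliarly with 0.1 or 0.2% aqueous compound solutions at 100 liter per 10 are plus 0.1% octylphenyl polyoxyethanol. Killing index (0 no effect to 5 death) scored at 21 days and 3 months; reproduction inhibition scored (-) to (+++) at 3 months.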

[2] = system: greaterduckweed; assay: Experiment 6 spray on aquatic plants in concrete pots; assay type: in vivo, Spirodela polyrhiza Sohleid.; conditions: for Reproduction-inhibiting effect: 3 months
Source text: (§1) The detail of the assessment made in the following Experiments of the invention was as follows:
(§2) Four months after treatment, evaluation was made for inhibition of reproduction expressed in terms of symbols ranging from (-) to (+++) where (-) means no reproduction, namely complete suppression of reproduction, (±) remarkable suppression of reproduction; (+) considerable suppression of reproduction; (++) medium supprestion of reproduction; and (+++) no suppression of reproduction.
(§3) A paddy field soil was packed in 50 cm. square concrete pots. omodaka (Sagittaria trifolia L.), urikawa (Sagittaria pygmaea Miq.), prog-bit (Hydrocharis dubia) and aginashi (Sagittaria Aginashi Makino) were transplanted; then water was poured onto the soil at 5 cm. depth.
(§4) Further, water hyacinth, greater-duckweed (Spirodela polyrhiza Schleid.) and duckweed (Lemna paucicostata Hegelm) were floated on the water.
(§5) After one month, the compounds of the invention diluted to the prescribed concentrations as indicated in Table 8 were sprayed in an amount of 100 liter per 10 are. As a surfactant, 0.1% of octylphenyl polyoxyethanol was added thereto.
(§6) The killing index (0, no effect; 5, death) after 21 days and 3 months and the reproduction-inhibiting effect (-, no reproduction; +++, maximum reproduction) after 3 months were determined.

[3] = system: hedge bindweed; assay: Experiment 1 foliar application to naturally growing weeds; assay type: in vivo, Calystegis hederacea Wall.; conditions: 4 months
How it was run: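 Naturally growing weeds receive a foliar spray of compound at prescribed concentrations, 150 liter per 10 are, containing 0.1% octylphenyl polyoxyethanol. Kill is rated 0 (no effect) to 5 (death) after 21 days. Regrowth is rated (-) to (+++) after 4 months, or 2 months for cockspar grass.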

[4] = system: cockspar grass; assay: as above; assay type: in vivo, Echinochloa Crusgalli P. Beauv.; conditions: for Reproduction-inhibiting effect: 2 months
How it was run: (§7)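 Test compounds, diluted to prescribed concentrations with 0.1% octylphenyl polyoxyethanol surfactant, were sprayed onto foliage of naturally growing weeds at 150 liter per 10 are. Killing index (0, no effect; 5, death) was scored at 21 days. Reproduction was scored from (-), complete suppression, to (+++), none, at 2 months for cockspar grass and 4 months for the other weeds.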

[5] = system: yamazakura; assay: Experiment 3 foliar application to naturally growing shrubs; assay type: in vivo, Prunus donarium Sieb. var. spontanae Makino; conditions: after 3 months
How it was run: (§8)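 Naturally growing shrubs were sprayed on the foliage at 150 liter per 10 are. Plant kill was then scored from 0 to 5 at 1 and 3 months, and reproduction was graded − to +++ at 3 months.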

[6] = system: azumanezasa; assay: Experiment 1 foliar application to naturally growing weeds; assay type: in vivo, Pleioblastus Chino Makino; conditions: 4 months
How it was run: as §7

[7] = system: oak; assay: Experiment 3 foliar application to naturally growing shrubs; assay type: in vivo, Quercus serrata Thunb; conditions: after 3 months
How it was run: as §8

[8] = system: weeds and shrubs; assay: Weeding effects, general statements; assay type: in vivo; conditions: as shown in Experiment 1
[9] = system: urikawa; assay: Experiment 6 spray on aquatic plants in concrete pots; assay type: in vivo, Sagittaria pygmaea Miguel; conditions: 3 months
Source text: as §1, §2, §3, §4, §5, §6

[10] = system: diatoms; assay: Experiment 7 application to water; assay type: in vivo, Bacillariophyta; parameters: key: 0: no effect; 5: perfect control
Source text: A black soil was packed in 50 cm. square concrete pots and water was poured there-onto at 50 cm. in depth. Hornwort (Ceratophyllum demersum L.), stonewort (Chara Braunii Gmel.) and salvinia (Salvinia natans All.) were transplanted and pond scum (Spirogira crassa Kutz) and diatoms (Bacillariophyta) were floated in the water.
Then, the compounds of the invention were applied dropwise onto the surface of the water so that the prescribed concentrations in the water are obtained as indicated in Table 9.

[11] = system: aginashi; assay: Experiment 6 spray on aquatic plants in concrete pots; assay type: in vivo, Sagittaria Aginashi Makino; conditions: 3 months
Source text: as §1, §2, §3, §4, §5, §6

[12] = system: progbit; assay: as above; assay type: in vivo, Hydrocharis dubia; conditions: 3 months
Source text: as §1, §2, §3, §4, §5, §6

[13] = system: duckweed; assay: as above; assay type: in vivo, Lemna paucicostata Hegelm; conditions: for Reproduction-inhibiting effect: 3 months
Source text: as §1, §2, §3, §4, §5, §6

[14] = system: water hyacinth; assay: as above; assay type: in vivo, Eichhornia crassipes Solms; conditions: for Reproduction-inhibiting effect: 3 months
Source text: as §1, §2, §3, §4, §5, §6

[15] = system: miyakozasa; assay: Experiment 2 foliar application in Japanese cypress afforested land; assay type: in vivo, Sasa nipponica Makino et Shibata; conditions: 0.125%; after 3 months
Experimental: as §1
The compounds of the invention and other compounds listed in Table 4. were diluted to prescribed concentrations and sprayed to shrubs by foliar application in a Japanese cypress afforested land in an amount of 150 liter per 10 are.
After 30 days and 3 months, the killing index (0, no effect; 5, death) was determined.
The heights of plants were 50-70 cm. for Japanese cypress, about 50 cm. for chestnut, 50-90 cm. for miyakozasa, about 100 cm. for eulalia and 70-100 cm. for kumaichigo, respectively.

SMILES: CP(=O)(O)CC[C@H](N)C(=O)O [L-AMPB choline, L-2-Amino-4-methylphosphino-butanoic acid choline]
- Reproduction-inhibiting effect ([1]; 0.1%): -
- Reproduction-inhibiting effect ([1]; 0.2%): -
- Reproduction-inhibiting effect ([2]; 0.05%): -
- Reproduction-inhibiting effect ([2]; 0.1%): -
- Reproduction-inhibiting effect ([2]; 0.2%): -
- Reproduction-inhibiting effect ([3]; 0.05%): ±
- Reproduction-inhibiting effect ([3]; 0.1%): -
- Reproduction-inhibiting effect ([3]; 0.2%): -
- Reproduction-inhibiting effect ([4]; 0.05%): ±
- Reproduction-inhibiting effect ([4]; 0.1%): -
- Reproduction-inhibiting effect ([4]; 0.2%): -
- Reproduction-inhibiting ([5]; 0.05%): -
- Reproduction-inhibiting ([5]; 0.1%): -
- Reproduction-inhibiting ([5]; 0.2%): -
- Reproduction-inhibiting effect ([6]; 0.05%): ±
- Reproduction-inhibiting effect ([6]; 0.1%): -
- Reproduction-inhibiting effect ([6]; 0.2%): -
- Reproduction-inhibiting ([7]; 0.05%): -
- Reproduction-inhibiting ([7]; 0.1%): -
- Reproduction-inhibiting ([7]; 0.2%): -
- effectiveness relative to monosodium or monodiethylammonium salts of L-2-amino-4-methylphosphinobutanoic acid [8]: twice effective
- Reproduction-inhibiting effect ([9]; 0.05%): +
- Reproduction-inhibiting effect ([9]; 0.1%): -
- Reproduction-inhibiting effect ([9]; 0.2%): -
- controlling effect ([10]; 1 ppm, 3 months): 4
- controlling effect ([10]; 1 ppm, 21 days): 4
- controlling effect ([10]; 3 ppm, 3 months): 5
- controlling effect ([10]; 3 ppm, 21 days): 5
- controlling effect ([10]; 10 ppm, 3 months): 5
- controlling effect ([10]; 10 ppm, 21 days): 5
- Reproduction-inhibiting effect ([11]; 0.05%): ±
- Reproduction-inhibiting effect ([11]; 0.1%): -
- Reproduction-inhibiting effect ([11]; 0.2%): -
- Reproduction-inhibiting effect ([12]; 0.05%): +
- Reproduction-inhibiting effect ([12]; 0.1%): -
- Reproduction-inhibiting effect ([12]; 0.2%): -
- Reproduction-inhibiting effect ([13]; 0.05%): -
- Reproduction-inhibiting effect ([13]; 0.1%): -
- Reproduction-inhibiting effect ([13]; 0.2%): -
- Reproduction-inhibiting effect ([14]; 0.05%): ++
- Reproduction-inhibiting effect ([14]; 0.1%): -
- Reproduction-inhibiting effect ([14]; 0.2%): -

SMILES: C[C@H](NC(=O)[C@H](C)NC(=O)[C@@H](N)CCP(C)(=O)O)C(=O)O [SF-1293 choline, (L-2-Amino-4-methylphosphinobutyryl)-L-alanyl-L-alanine choline]
- Reproduction-inhibiting effect ([1]; 0.1%): ±
- Reproduction-inhibiting effect ([1]; 0.2%): -
- Reproduction-inhibiting effect ([2]; 0.05%): +
- Reproduction-inhibiting effect ([2]; 0.1%): -
- Killing index ([2]; 0.1%, 21 days): 4.5
- Reproduction-inhibiting effect ([2]; 0.2%): -
- Reproduction-inhibiting effect ([3]; 0.05%): +
- Reproduction-inhibiting effect ([3]; 0.1%): ±
- Reproduction-inhibiting effect ([3]; 0.2%): -
- Reproduction-inhibiting effect ([4]; 0.05%): +
- Reproduction-inhibiting effect ([4]; 0.1%): ±
- Killing index of Upperground parts ([4]; 0.1%, 21 days): 4.5
- Reproduction-inhibiting effect ([4]; 0.2%): -
- Reproduction-inhibiting ([5]; 0.05%): ++
- Reproduction-inhibiting ([5]; 0.1%): -
- Reproduction-inhibiting ([5]; 0.2%): -
- Reproduction-inhibiting effect ([6]; 0.05%): +
- Reproduction-inhibiting effect ([6]; 0.1%): -
- Reproduction-inhibiting effect ([6]; 0.2%): -
- Reproduction-inhibiting ([7]; 0.05%): ++
- Reproduction-inhibiting ([7]; 0.1%): -
- Reproduction-inhibiting ([7]; 0.2%): -
- Reproduction-inhibiting effect ([9]; 0.05%): ++
- Reproduction-inhibiting effect ([9]; 0.1%): ±
- Reproduction-inhibiting effect ([9]; 0.2%): -
- controlling effect ([10]; 1 ppm, 3 months): 1
- controlling effect ([10]; 1 ppm, 21 days): 2
- controlling effect ([10]; 3 ppm, 3 months): 5
- controlling effect ([10]; 3 ppm, 21 days): 3
- controlling effect ([10]; 10 ppm, 3 months): 5
- controlling effect ([10]; 10 ppm, 21 days): 5
- Reproduction-inhibiting effect ([11]; 0.05%): ++
- Reproduction-inhibiting effect ([11]; 0.1%): ±
- Reproduction-inhibiting effect ([11]; 0.2%): -
- Reproduction-inhibiting effect ([12]; 0.05%): ++
- Reproduction-inhibiting effect ([12]; 0.1%): ±
- Reproduction-inhibiting effect ([12]; 0.2%): -
- Killing index [15]: 4.5
- Reproduction-inhibiting effect ([13]; 0.05%): +
- Reproduction-inhibiting effect ([13]; 0.1%): -
- Killing index ([13]; 0.1%, 21 days): 4.5
- Reproduction-inhibiting effect ([13]; 0.2%): -
- Reproduction-inhibiting effect ([14]; 0.05%): ++
- Reproduction-inhibiting effect ([14]; 0.1%): -
- Killing index ([14]; 0.1%, 21 days): 4.5
- Reproduction-inhibiting effect ([14]; 0.2%): -
